Source: publication PMC7660874 (Journal of the American Heart Association: Cardiovascular …, 2020)

Key:
[1] = target: human TASK-1 (hTASK-1, hK2P3.1) (Homo sapiens, UniProt O14649); test: two-electrode voltage clamp in Xenopus oocytes at […]; type: cell-based; settings: read-out: % of control current at 100 μmol/L
[2] = target: porcine TASK-1 (pTASK-1) (Sus scrofa, UniProt A0A286ZMZ4); test: as above; type: cell-based; settings: read-out: % of control current at 100 μmol/L
Chain of porcine TASK-1 (pTASK-1) (A0A286ZMZ4 1-401): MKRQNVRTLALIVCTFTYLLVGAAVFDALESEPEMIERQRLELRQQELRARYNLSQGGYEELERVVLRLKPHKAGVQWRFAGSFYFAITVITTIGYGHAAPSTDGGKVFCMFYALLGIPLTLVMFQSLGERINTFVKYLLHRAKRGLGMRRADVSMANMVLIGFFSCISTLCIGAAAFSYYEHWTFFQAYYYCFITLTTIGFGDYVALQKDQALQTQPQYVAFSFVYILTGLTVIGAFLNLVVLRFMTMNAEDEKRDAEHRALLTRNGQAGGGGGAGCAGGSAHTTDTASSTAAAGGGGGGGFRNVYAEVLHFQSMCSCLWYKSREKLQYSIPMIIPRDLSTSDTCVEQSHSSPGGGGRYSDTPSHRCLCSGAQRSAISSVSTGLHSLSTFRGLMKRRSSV

Chain of human TASK-1 (hTASK-1, hK2P3.1) (O14649 whole entry): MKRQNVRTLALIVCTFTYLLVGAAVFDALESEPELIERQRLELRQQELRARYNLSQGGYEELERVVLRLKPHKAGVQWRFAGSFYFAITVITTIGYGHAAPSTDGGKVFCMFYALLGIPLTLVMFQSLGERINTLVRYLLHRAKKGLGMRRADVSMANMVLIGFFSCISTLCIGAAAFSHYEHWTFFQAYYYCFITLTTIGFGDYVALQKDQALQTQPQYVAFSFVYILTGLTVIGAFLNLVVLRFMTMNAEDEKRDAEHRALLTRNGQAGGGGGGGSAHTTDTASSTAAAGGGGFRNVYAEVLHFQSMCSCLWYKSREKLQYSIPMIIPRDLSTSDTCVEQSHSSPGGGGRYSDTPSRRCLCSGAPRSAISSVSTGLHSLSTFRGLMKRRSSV

- remaining activity at 100 µM [1]: 21.3 ± 8.7%
- remaining activity at 100 µM [2]: 28 ± 6.8%
Structure (SMILES): CCCCS(=O)(=O)Nc1ccccc1C(=O)N[C@H](CC)c1ccc(OC)nc1 [A293, 2‐(butylsulfonylamino)‐N‐[(1R)‐1‐(6‐methoxy‐3‐pyridyl)propyl]‐benzamide]
